From patent publication US8642626B2, “Ethinyl-pyrazole derivative” (Taisho Pharmaceutical Co., Ltd., priority 2010, dated 2014)

Tests used:
[1] = biological target: T1, rat metabotropic glutamate receptor (mGlu2) (Rattus norvegicus, UniProt P31421); test: [35S]GTPγS binding test (1), crude membrane fraction of CHO cells stably expressing rat mGlu2; type: biochemical; settings: rat mGlu2 CHO membranes
T1 construct: expressed in transfected cells
Description: [^35S]GTPγS Binding Test (1)
(Preparation of Crude Membrane Fraction of CHO Cells Stably Expressing the Rat Metabotropic Glutamate Receptor (mGlu2))
(§1) CHO cells stably expressing the rat mGlu2 were cultured in a 10% dialyzed fetal bovine serum-containing Dulbecco's Modified Eagle's Medium [1% proline, 50 units/mL penicillin, 50 μg/mL streptomycin, and 2 mM L-glutamine (to be added when used)] at 37° C. in 5% CO2. Confluent cells were washed with PBS(−) twice, and were then harvested with a cell scraper. Then, the cells were centrifuged at 4° C. at 1000 rpm for 5 minutes to collect. The obtained precipitate was suspended in a 20 mM HEPES buffer (pH 7.4), and then homogenized with a Teflon (registered trademark) homogenizer. The resultant was centrifuged at 4° C. at 48,000×g for 20 minutes to obtain a precipitate again. The obtained precipitate was washed twice by centrifugation, and was then homogenized with the above-mentioned buffer, so as to obtain a crude membrane fraction. The obtained crude membrane fraction was preserved at −80° C.
The frozen membrane fraction as prepared above was thawed when used, and it was then diluted with a binding test buffer (final concentration: 20 mM HEPES, 100 mM NaCl, 10 mM MgCl2, 8.4 μM GDP, 10 μg/mL saponin, and 0.1% BSA). The compound of the Example was added to a membrane fraction (10 μg protein/assay), and the obtained mixture was then incubated at 30° C. for 20 minutes. Thereafter, glutamic acid (final concentration: 20 μM; but it was 30 μM only in the compounds 1 and 40 of the Examples) and [^35S]GTPγS (final concentration: 0.15 nM) were added to the reaction mixture, and then incubated at 30° C. for 1 hour. After completion of the incubation, the reaction mixture was subjected to filtration over a Whatman GF/C filter that had previously been immersed in a 20 mM HEPES buffer (pH 7.4), and the filter was then washed three times with 300 μL of ice-cold 20 mM HEPES buffer (pH 7.4). A scintillation cocktail was added to the resulting filter, and membrane-bound radioactivity was then measured with a liquid scintillation counter.
The amount of [^35S]GTPγS bound in the case of carrying out the above described reaction in the absence of glutamic acid was defined as non-specific binding. The difference between such non-specific bound and the amount of [^35S]GTPγS bound in the presence of glutamic acid was defined as specific binding. Using non-linear analysis, a concentration-inhibition curve was produced. The concentration of the compound of each Example that caused 50% inhibition (IC50 value) of specific binding was determined from each concentration-inhibition curve.

[2] = biological target: T2, human metabotropic glutamate receptor (mGlu2) (Homo sapiens, UniProt Q14416); test: [35S]GTPγS binding test (2), crude membrane fraction of CHO cells stably expressing human mGlu2; type: biochemical; settings: inhibition of glutamic acid (20 μM)-stimulated specific [35S]GTPγS binding, human mGlu2 CHO membranes
T2 construct: expressed in transfected cells
T2 sequence (Q14416 19-872): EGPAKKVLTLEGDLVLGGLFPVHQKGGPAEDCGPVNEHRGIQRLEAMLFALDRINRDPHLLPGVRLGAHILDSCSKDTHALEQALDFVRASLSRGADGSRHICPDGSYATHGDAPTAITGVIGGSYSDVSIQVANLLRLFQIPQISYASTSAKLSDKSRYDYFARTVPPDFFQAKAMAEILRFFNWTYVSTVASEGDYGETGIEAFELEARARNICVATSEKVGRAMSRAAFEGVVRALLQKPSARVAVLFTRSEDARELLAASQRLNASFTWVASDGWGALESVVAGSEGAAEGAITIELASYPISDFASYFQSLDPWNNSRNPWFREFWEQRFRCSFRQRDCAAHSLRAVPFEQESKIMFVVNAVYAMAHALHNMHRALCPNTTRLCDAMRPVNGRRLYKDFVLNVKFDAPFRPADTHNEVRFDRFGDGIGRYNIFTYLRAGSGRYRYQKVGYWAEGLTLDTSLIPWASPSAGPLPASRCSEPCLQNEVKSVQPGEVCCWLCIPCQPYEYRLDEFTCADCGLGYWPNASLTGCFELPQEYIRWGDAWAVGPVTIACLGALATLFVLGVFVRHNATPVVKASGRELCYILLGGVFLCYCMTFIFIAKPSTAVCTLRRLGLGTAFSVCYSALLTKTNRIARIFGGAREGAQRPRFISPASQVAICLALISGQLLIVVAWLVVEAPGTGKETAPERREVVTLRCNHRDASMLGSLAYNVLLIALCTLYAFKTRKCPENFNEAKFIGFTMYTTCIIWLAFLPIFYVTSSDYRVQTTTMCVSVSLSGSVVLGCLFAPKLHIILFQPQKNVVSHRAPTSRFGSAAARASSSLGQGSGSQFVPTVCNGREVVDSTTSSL
Description: [^35S]GTPγS Binding Test (2)
(Preparation of Crude Membrane Fraction of CHO Cells Stably Expressing the Human Metabotropic Glutamate Receptor (mGlu2))
as §1, with “human” for “rat”, “mGlu2 receptor” for “mGlu2”, “streptomycin, 400 μg/mL hygromycin B,” for “streptomycin,”, “The obtained crude membrane fraction was preserved at −80° C.” left out
The frozen membrane fraction as prepared above was thawed when used, and it was then diluted with a binding test buffer (final concentration: 20 mM HEPES, 100 mM NaCl, 10 mM MgCl2, 8.4 μM GDP, 10 μg/mL saponin, and 0.1% BSA). […] A scintillation cocktail was added to the resulting filter, and membrane-bound radioactivity was then measured with a liquid scintillation counter. […]

[3] = inhibition of glutamic acid (20 μM)-stimulated specific [35S]GTPγS binding
[4] = inhibition of glutamic acid (30 μM, only compounds 1 and 40)-stimulated specific [35S]GTPγS binding

T1 sequence (P31421 19-872): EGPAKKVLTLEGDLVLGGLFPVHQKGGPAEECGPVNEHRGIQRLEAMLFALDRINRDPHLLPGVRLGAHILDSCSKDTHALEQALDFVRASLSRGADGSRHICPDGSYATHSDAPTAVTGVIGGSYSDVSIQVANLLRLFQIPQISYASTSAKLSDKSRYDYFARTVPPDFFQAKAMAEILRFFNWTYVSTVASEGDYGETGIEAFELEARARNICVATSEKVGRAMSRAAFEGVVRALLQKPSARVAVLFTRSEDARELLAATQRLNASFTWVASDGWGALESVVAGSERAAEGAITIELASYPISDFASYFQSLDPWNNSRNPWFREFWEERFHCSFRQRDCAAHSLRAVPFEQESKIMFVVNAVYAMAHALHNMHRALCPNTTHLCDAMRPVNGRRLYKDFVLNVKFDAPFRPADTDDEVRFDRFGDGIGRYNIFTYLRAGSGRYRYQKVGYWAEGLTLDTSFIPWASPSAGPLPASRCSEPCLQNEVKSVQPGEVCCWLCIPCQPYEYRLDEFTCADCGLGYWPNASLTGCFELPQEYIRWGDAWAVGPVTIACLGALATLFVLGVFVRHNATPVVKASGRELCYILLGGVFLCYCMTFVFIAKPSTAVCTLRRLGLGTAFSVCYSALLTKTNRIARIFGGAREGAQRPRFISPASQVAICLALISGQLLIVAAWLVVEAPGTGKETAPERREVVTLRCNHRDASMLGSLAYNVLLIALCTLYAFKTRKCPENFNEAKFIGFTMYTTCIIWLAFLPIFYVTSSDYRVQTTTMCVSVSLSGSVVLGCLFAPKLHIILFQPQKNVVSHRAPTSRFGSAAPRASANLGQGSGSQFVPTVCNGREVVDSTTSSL

Compound | IC50 [1, 3] | also measured
Cn1ncc(C#Cc2ccc(S(N)(=O)=O)cc2)c1-c1ccc(C(F)(F)F)cn1 [Example 50, 4-({1-methyl-5-[5-(trifluoromethyl)pyridin-2-yl]-1H-pyrazol-4-yl}ethynyl)benzenesulfonamide] | 0.0764 µM | –
CN(C)CCNS(=O)(=O)c1cccc(C#Cc2cnn(C)c2-c2ccc(C(F)(F)F)cc2)c1 [Example 1, N-[2-(dimethylamino)ethyl]-3-({1-methyl-5-[4-(trifluoromethyl)phenyl]-1H-pyrazol-4-yl}ethynyl)benzenesulfonamide] | – | IC50 [1, 4]: 0.158 µM
Cn1ncc(C#Cc2ccc(S(N)(=O)=O)cc2)c1COc1ccc(F)cn1 [Example 108, 4-[(5-{[(5-fluoropyridin-2-yl)oxy]methyl}-1-methyl-1H-pyrazol-4-yl)ethynyl]benzenesulfonamide] | – | IC50 [2]: 0.00922 µM
Cn1ncc(C#Cc2ccc(S(N)(=O)=O)cc2)c1-c1nc(-c2ccc(C(F)(F)F)cc2)no1 [Example 73, 4-[(1-methyl-5-{3-[4-(trifluoromethyl)phenyl]-1,2,4-oxadiazol-5-yl}-1H-pyrazol-4-yl)ethynyl]benzenesulfonamide] | 0.0021 µM | –
Cn1ncc(C#Cc2ccc(S(N)(=O)=O)cc2)c1COc1ccc(C(F)(F)F)cn1 [Example 109, 4-{[1-methyl-5-({[5-(trifluoromethyl)pyridin-2-yl]oxy}methyl)-1H-pyrazol-4-yl]ethynyl}benzenesulfonamide] | – | IC50 [2]: 0.00122 µM
Cn1ncc(C#Cc2ccc(S(N)(=O)=O)cc2F)c1CCc1ccc(C(F)(F)F)cc1 [Example 83, 3-fluoro-4-[(1-methyl-5-{2-[4-(trifluoromethyl)phenyl]ethyl}-1H-pyrazol-4-yl)ethynyl]benzenesulfonamide] | 0.022 µM | –
Cn1ncc(C#Cc2cccc(S(N)(=O)=O)c2)c1-c1cc(-c2ccc(C(F)(F)F)cc2)no1 [Example 87, 3-[(1-methyl-5-{3-[4-(trifluoromethyl)phenyl]-1,2-oxazol-5-yl}-1H-pyrazol-4-yl)ethynyl]benzenesulfonamide] | 0.00343 µM | –
Cn1ncc(C#Cc2ccc(S(N)(=O)=O)cc2)c1N1Cc2ccc(Cl)cc2C1 [Example 58, 4-{[5-(5-chloro-1,3-dihydro-2H-isoindol-2-yl)-1-methyl-1H-pyrazol-4-yl]ethynyl}benzenesulfonamide] | 0.0138 µM | –
Cn1ncc(C#Cc2ccc(S(N)(=O)=O)cc2)c1-c1cnn(-c2ccc(C(F)(F)F)cc2)c1 [Example 64, 4-({2-methyl-1′-[4-(trifluoromethyl)phenyl]-1′H,2H-3,4′-bipyrazol-4-yl}ethynyl)benzenesulfonamide] | 0.00977 µM | –
Cn1ncc(C#Cc2cccc(S(N)(=O)=O)c2)c1N1Cc2cc3ccccc3cc2C1 [Example 40, 3-{[5-(1,3-dihydro-2H-benzo[f]isoindol-2-yl)-1-methyl-1H-pyrazol-4-yl]ethynyl}benzenesulfonamide] | – | IC50 [1, 4]: 0.0242 µM

Continued, in another order:

IC50 [1, 3] | Compound | also measured
0.0428 µM | Cn1ncc(C#Cc2cccc(S(N)(=O)=O)c2)c1CNc1ccc(C(F)(F)F)cc1 [Example 98] | –
0.0551 µM | Cn1ncc(C#Cc2cccc(S(N)(=O)=O)c2)c1OCc1ccc(C(F)(F)F)cc1 [Example 89, 3-[(1-methyl-5-{[4-(trifluoromethyl)benzyl]oxy}-1H-pyrazol-4-yl)ethynyl]benzenesulfonamide] | –
0.00788 µM | Cn1ncc(C#Cc2cccc(S(N)(=O)=O)c2)c1CCOc1ccc(C(F)(F)F)cc1 [Example 106, 3-[(1-methyl-5-{2-[4-(trifluoromethyl)phenoxy]ethyl}-1H-pyrazol-4-yl)ethynyl]benzenesulfonamide] | –
0.00272 µM | Cn1ncc(C#Cc2cccc(S(N)(=O)=O)c2)c1COc1ccc(C(F)(F)F)cc1 [Example 84, 3-[(1-methyl-5-{[4-(trifluoromethyl)phenoxy]methyl}-1H-pyrazol-4-yl)ethynyl]benzenesulfonamide] | –
0.0146 µM | Cc1nn(C)c(COc2ccc(C(F)(F)F)cc2)c1C#Cc1cccc(S(N)(=O)=O)c1 [Example 81, 3-[(1,3-dimethyl-5-{[4-(trifluoromethyl)phenoxy]methyl}-1H-pyrazol-4-yl)ethynyl]benzenesulfonamide] | –
0.0618 µM | Cn1ncc(C#Cc2cccc(S(N)(=O)=O)c2)c1COc1ccc(C#N)cc1 [Example 100, 3-({5-[(4-cyanophenoxy)methyl]-1-methyl-1H-pyrazol-4-yl}ethynyl)benzenesulfonamide] | –
0.0182 µM | Cn1ncc(C#Cc2cccc(S(N)(=O)=O)c2)c1CCc1cccc(C(F)(F)F)c1 [Example 94, 3-[(1-methyl-5-{2-[3-(trifluoromethyl)phenyl]ethyl}-1H-pyrazol-4-yl)ethynyl]benzenesulfonamide] | –
